In PubChem BioAssay (NCI):
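A five-concentration, 48-hour dose response in 96-well plates underlies each endpoint, interpolated linearly between surrounding concentrations. TGI: concentration producing complete growth inhibition.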

Columns and labels:
Experiment in all cases: inhibition of tumour cell growth, NCI panel, 48 h
786-0 renal = system: 786-0 renal
A498 renal = system: A498 renal
A549 NSCLC = system: A549 NSCLC
ACHN renal = system: ACHN renal
BT-549 breast = system: BT-549 breast
CAKI-1 renal = system: CAKI-1 renal
CCRF-CEM leukemia = system: CCRF-CEM leukemia
COLO 205 colon = system: COLO 205 colon
DU-145 prostate = system: DU-145 prostate
EKVX NSCLC = system: EKVX NSCLC
HCC-2998 colon = system: HCC-2998 colon
HCT-116 colon = system: HCT-116 colon
HCT-15 colon = system: HCT-15 colon
HL-60(TB) leukemia = system: HL-60(TB) leukemia
HOP-62 NSCLC = system: HOP-62 NSCLC
HOP-92 NSCLC = system: HOP-92 NSCLC
HS 578T breast = system: HS 578T breast
HT29 colon = system: HT29 colon
IGROV1 ovarian = system: IGROV1 ovarian
K-562 leukemia = system: K-562 leukemia
KM12 colon = system: KM12 colon
LOX IMVI melanoma = system: LOX IMVI melanoma
M14 melanoma = system: M14 melanoma
MCF7 breast = system: MCF7 breast
MDA-MB-231 breast = system: MDA-MB-231 breast
MDA-MB-435 = system: MDA-MB-435
MDA-N = system: MDA-N
MOLT-4 leukemia = system: MOLT-4 leukemia
NCI-H226 lung = system: NCI-H226 lung
NCI-H23 lung = system: NCI-H23 lung
NCI-H460 lung = system: NCI-H460 lung
NCI-H522 lung = system: NCI-H522 lung
NCI/ADR-RES ovarian = system: NCI/ADR-RES ovarian
OVCAR-3 ovarian = system: OVCAR-3 ovarian
OVCAR-4 ovarian = system: OVCAR-4 ovarian
OVCAR-5 ovarian = system: OVCAR-5 ovarian
OVCAR-8 ovarian = system: OVCAR-8 ovarian
PC-3 prostate = system: PC-3 prostate
RPMI-8226 leukemia = system: RPMI-8226 leukemia
SF-268 CNS = system: SF-268 CNS
SF-295 CNS = system: SF-295 CNS
SF-539 CNS = system: SF-539 CNS
SK-MEL-2 melanoma = system: SK-MEL-2 melanoma
SK-MEL-28 melanoma = system: SK-MEL-28 melanoma
SK-MEL-5 melanoma = system: SK-MEL-5 melanoma
SK-OV-3 ovarian = system: SK-OV-3 ovarian
SN12C renal = system: SN12C renal
SNB-19 CNS = system: SNB-19 CNS
SNB-75 CNS = system: SNB-75 CNS
SR leukemia = system: SR leukemia
SW-620 colon = system: SW-620 colon
T-47D breast = system: T-47D breast
TK-10 renal = system: TK-10 renal
U251 CNS = system: U251 CNS
UACC-257 melanoma = system: UACC-257 melanoma
UACC-62 melanoma = system: UACC-62 melanoma
UO-31 renal = system: UO-31 renal
MALME-3M melanoma = system: MALME-3M melanoma
RXF 393 renal = system: RXF 393 renal

Compound `CC1CC(C(=O)OC2OC(COC3OC(CO)C(OC4OC(C)C(O)C(O)C4O)C(O)C3O)C(O)C(O)C2O)C2CCC3(C)C(=CCC4(C)C3CCC3C(C)(CO)C(O)C(O)CC34C)C2C1C` (stereo not drawn) has a TGI (786-0 renal) of 51.5 µM, a TGI (A498 renal) of over 10 µM and a TGI (A549 NSCLC) of over 100 µM. For the same compound, the TGI (ACHN renal) was over 10 µM, the TGI (BT-549 breast) was 32.3 µM and the TGI (CAKI-1 renal) was over 100 µM. The TGI (CCRF-CEM leukemia) was 52.2 µM, the TGI (COLO 205 colon) was 32.7 µM and the TGI (DU-145 prostate) was over 100 µM. It also gave a TGI (EKVX NSCLC) of over 10 µM, a TGI (HCC-2998 colon) of 40.8 µM and a TGI (HCT-116 colon) of 41.7 µM. The TGI (HCT-15 colon) was over 100 µM, the TGI (HL-60(TB) leukemia) was 45.8 µM and the TGI (HOP-62 NSCLC) was 37.2 µM. The TGI (HOP-92 NSCLC) was 34.6 µM, the TGI (HS 578T breast) was 35.5 µM and the TGI (HT29 colon) was 41.1 µM. For the same compound, the TGI (IGROV1 ovarian) was 33.2 µM, the TGI (K-562 leukemia) was over 100 µM and the TGI (KM12 colon) was 33.4 µM. It also gave a TGI (LOX IMVI melanoma) of 58.8 µM, a TGI (M14 melanoma) of over 100 µM and a TGI (MCF7 breast) of 53 µM. For the same compound, the TGI (MDA-MB-231 breast) was 34 µM, the TGI (MDA-MB-435) was 34.5 µM and the TGI (MDA-N) was 36.4 µM. It also gave a TGI (MOLT-4 leukemia) of 41.4 µM, a TGI (NCI-H226 lung) of 80.1 µM and a TGI (NCI-H23 lung) of 33.3 µM. It also gave a TGI (NCI-H460 lung) of 66.6 µM, a TGI (NCI-H522 lung) of 30.1 µM and a TGI (NCI/ADR-RES ovarian) of over 100 µM. For the same compound, the TGI (OVCAR-3 ovarian) was 60.4 µM, the TGI (OVCAR-4 ovarian) was 37.3 µM and the TGI (OVCAR-5 ovarian) was 66.7 µM. The TGI (OVCAR-8 ovarian) was 32.3 µM, the TGI (PC-3 prostate) was 84.6 µM and the TGI (RPMI-8226 leukemia) was 49.2 µM. It also gave a TGI (SF-268 CNS) of 37.8 µM, a TGI (SF-295 CNS) of 82.8 µM and a TGI (SF-539 CNS) of 38 µM. It also gave a TGI (SK-MEL-2 melanoma) of 42.2 µM, a TGI (SK-MEL-28 melanoma) of 33.5 µM and a TGI (SK-MEL-5 melanoma) of 33 µM. For the same compound, the TGI (SK-OV-3 ovarian) was over 100 µM, the TGI (SN12C renal) was 37 µM and the TGI (SNB-19 CNS) was 32 µM. It also gave a TGI (SNB-75 CNS) of 32.5 µM, a TGI (SR leukemia) of 41 µM and a TGI (SW-620 colon) of 88.3 µM. For the same compound, the TGI (T-47D breast) was 35 µM, the TGI (TK-10 renal) was over 100 µM and the TGI (U251 CNS) was 33.5 µM. For the same compound, the TGI (UACC-257 melanoma) was over 10 µM, the TGI (UACC-62 melanoma) was 32.7 µM and the TGI (UO-31 renal) was over 100 µM.

With `Cc1cc2c(=O)[nH]c(N)nc2nc1C` the TGI (786-0 renal) was over 100 µM, the TGI (A498 renal) was over 100 µM and the TGI (A549 NSCLC) was over 100 µM. For the same compound, the TGI (ACHN renal) was over 100 µM, the TGI (BT-549 breast) was over 100 µM and the TGI (CAKI-1 renal) was over 100 µM. It also gave a TGI (CCRF-CEM leukemia) of over 100 µM, a TGI (COLO 205 colon) of over 100 µM and a TGI (DU-145 prostate) of over 100 µM. The TGI (EKVX NSCLC) was over 100 µM, the TGI (HCT-116 colon) was over 100 µM and the TGI (HCT-15 colon) was over 100 µM. The TGI (HL-60(TB) leukemia) was over 100 µM, the TGI (HOP-62 NSCLC) was over 100 µM and the TGI (HOP-92 NSCLC) was over 100 µM. The TGI (HS 578T breast) was over 100 µM, the TGI (HT29 colon) was over 100 µM and the TGI (IGROV1 ovarian) was over 100 µM. It also gave a TGI (K-562 leukemia) of over 100 µM, a TGI (KM12 colon) of over 100 µM and a TGI (LOX IMVI melanoma) of over 100 µM. The TGI (M14 melanoma) was over 100 µM, the TGI (MALME-3M melanoma) was over 100 µM and the TGI (MCF7 breast) was over 100 µM. It also gave a TGI (MDA-MB-231 breast) of over 100 µM, a TGI (MDA-MB-435) of over 100 µM and a TGI (MDA-N) of over 100 µM. For the same compound, the TGI (NCI-H226 lung) was over 100 µM, the TGI (NCI-H23 lung) was over 100 µM and the TGI (NCI-H460 lung) was over 100 µM. It also gave a TGI (NCI-H522 lung) of over 100 µM, a TGI (NCI/ADR-RES ovarian) of over 100 µM and a TGI (OVCAR-3 ovarian) of over 100 µM. The TGI (OVCAR-4 ovarian) was over 100 µM, the TGI (OVCAR-5 ovarian) was over 100 µM and the TGI (OVCAR-8 ovarian) was over 100 µM. The TGI (PC-3 prostate) was over 100 µM, the TGI (RPMI-8226 leukemia) was over 100 µM and the TGI (RXF 393 renal) was over 100 µM. The TGI (SF-268 CNS) was over 100 µM, the TGI (SF-295 CNS) was over 100 µM and the TGI (SK-MEL-2 melanoma) was over 100 µM. The TGI (SK-MEL-28 melanoma) was over 100 µM, the TGI (SK-MEL-5 melanoma) was over 100 µM and the TGI (SK-OV-3 ovarian) was over 100 µM. For the same compound, the TGI (SN12C renal) was over 100 µM, the TGI (SNB-19 CNS) was over 100 µM and the TGI (SNB-75 CNS) was over 100 µM. It also gave a TGI (SR leukemia) of over 100 µM, a TGI (SW-620 colon) of over 100 µM and a TGI (T-47D breast) of over 100 µM. The TGI (TK-10 renal) was over 100 µM, the TGI (U251 CNS) was over 100 µM and the TGI (UACC-257 melanoma) was over 100 µM. For the same compound, the TGI (UACC-62 melanoma) was over 100 µM and the TGI (UO-31 renal) was over 100 µM.
